Assay: xn = mol fraction of the nth substance listed
Details: Gas, Buoyancy - hydrostatic balance with magnetic suspension - one sinker

N#N [nitrogen] + O=C=O
Details | mass density [kg/m3]
324.98 K, 10004 kPa, x2 = 0.501 | 153.908
324.98 K, 11001 kPa, x2 = 0.501 | 171.162
324.98 K, 12005 kPa, x2 = 0.501 | 188.662
324.98 K, 13008 kPa, x2 = 0.501 | 206.25
324.98 K, 14011 kPa, x2 = 0.501 | 223.826
324.98 K, 14991 kPa, x2 = 0.501 | 240.922
324.98 K, 16018 kPa, x2 = 0.501 | 258.66
324.98 K, 17012 kPa, x2 = 0.501 | 275.602
324.98 K, 18018 kPa, x2 = 0.501 | 292.404
324.98 K, 19023 kPa, x2 = 0.501 | 308.813
324.98 K, 19436 kPa, x2 = 0.501 | 315.426
349.95 K, 1995.5 kPa, x2 = 0.2 | 21.523
349.95 K, 3995.9 kPa, x2 = 0.2 | 43.283
349.95 K, 5996.5 kPa, x2 = 0.2 | 65.117
349.95 K, 7996.2 kPa, x2 = 0.2 | 86.91
349.95 K, 9978.8 kPa, x2 = 0.2 | 108.381
349.95 K, 11996 kPa, x2 = 0.2 | 129.976
349.95 K, 13995 kPa, x2 = 0.2 | 151.019
349.95 K, 15999 kPa, x2 = 0.2 | 171.67
349.95 K, 17993 kPa, x2 = 0.2 | 191.695
349.95 K, 19820 kPa, x2 = 0.2 | 209.531
349.96 K, 983.48 kPa, x2 = 0.501 | 12.303
349.96 K, 1988.3 kPa, x2 = 0.501 | 25.152
349.96 K, 2996.4 kPa, x2 = 0.501 | 38.326
349.96 K, 3997 kPa, x2 = 0.501 | 51.667
349.96 K, 4995.9 kPa, x2 = 0.501 | 65.24
349.96 K, 5996.2 kPa, x2 = 0.501 | 79.074
349.96 K, 6995.9 kPa, x2 = 0.501 | 93.129
349.96 K, 7995.5 kPa, x2 = 0.501 | 107.379
349.96 K, 8996.2 kPa, x2 = 0.501 | 121.83
349.96 K, 9996.3 kPa, x2 = 0.501 | 136.421
349.96 K, 10998 kPa, x2 = 0.501 | 151.155
349.96 K, 11997 kPa, x2 = 0.501 | 165.911
349.96 K, 12998 kPa, x2 = 0.501 | 180.741
349.96 K, 14000 kPa, x2 = 0.501 | 195.573
349.96 K, 14998 kPa, x2 = 0.501 | 210.29
349.96 K, 15995 kPa, x2 = 0.501 | 224.908
349.96 K, 16996 kPa, x2 = 0.501 | 239.453
349.96 K, 17996 kPa, x2 = 0.501 | 253.79
349.96 K, 18997 kPa, x2 = 0.501 | 267.945
349.96 K, 19977 kPa, x2 = 0.501 | 281.556
374.94 K, 981.92 kPa, x2 = 0.2 | 9.845
374.94 K, 1992.4 kPa, x2 = 0.2 | 19.995
374.94 K, 3995.7 kPa, x2 = 0.2 | 40.155
374.94 K, 5995.1 kPa, x2 = 0.2 | 60.236
374.94 K, 7995.3 kPa, x2 = 0.2 | 80.217
374.94 K, 9993 kPa, x2 = 0.2 | 99.987
374.94 K, 11990 kPa, x2 = 0.2 | 119.489
374.94 K, 13988 kPa, x2 = 0.2 | 138.676
374.94 K, 16023 kPa, x2 = 0.2 | 157.817
374.94 K, 17847 kPa, x2 = 0.2 | 174.574
374.94 K, 19903 kPa, x2 = 0.2 | 192.989
374.95 K, 987.06 kPa, x2 = 0.501 | 11.492
374.95 K, 1987.8 kPa, x2 = 0.501 | 23.329
374.95 K, 2995.7 kPa, x2 = 0.501 | 35.439
374.95 K, 3994.8 kPa, x2 = 0.501 | 47.603
374.95 K, 4993.3 kPa, x2 = 0.501 | 59.918
374.95 K, 5994.6 kPa, x2 = 0.501 | 72.415
374.95 K, 6995 kPa, x2 = 0.501 | 85.031
374.95 K, 8053.6 kPa, x2 = 0.501 | 98.499
374.95 K, 8965.3 kPa, x2 = 0.501 | 110.186
374.95 K, 9995.9 kPa, x2 = 0.501 | 123.471
374.95 K, 10995 kPa, x2 = 0.501 | 136.416
374.95 K, 11992 kPa, x2 = 0.501 | 149.335
374.95 K, 12992 kPa, x2 = 0.501 | 162.294
374.95 K, 13995 kPa, x2 = 0.501 | 175.285
374.95 K, 14994 kPa, x2 = 0.501 | 188.172
374.95 K, 15990 kPa, x2 = 0.501 | 200.942
374.95 K, 16990 kPa, x2 = 0.501 | 213.677
374.95 K, 17988 kPa, x2 = 0.501 | 226.253
374.95 K, 19119 kPa, x2 = 0.501 | 240.354
374.95 K, 19941 kPa, x2 = 0.501 | 250.44
400.01 K, 996.68 kPa, x2 = 0.2 | 9.356
400.01 K, 1978.2 kPa, x2 = 0.2 | 18.57
400.01 K, 3994 kPa, x2 = 0.2 | 37.452
400.01 K, 5994.7 kPa, x2 = 0.2 | 56.097
400.01 K, 7993.8 kPa, x2 = 0.2 | 74.576
400.01 K, 9990.6 kPa, x2 = 0.2 | 92.826
400.01 K, 11990 kPa, x2 = 0.2 | 110.835
400.01 K, 13987 kPa, x2 = 0.2 | 128.512
400.01 K, 15981 kPa, x2 = 0.2 | 145.821
400.01 K, 17979 kPa, x2 = 0.2 | 162.772
400.01 K, 19979 kPa, x2 = 0.2 | 179.326
400.02 K, 975.89 kPa, x2 = 0.501 | 10.626
400.02 K, 1987.6 kPa, x2 = 0.501 | 21.767
400.02 K, 2995.6 kPa, x2 = 0.501 | 32.992
400.02 K, 3980.9 kPa, x2 = 0.501 | 44.058
400.02 K, 4993.2 kPa, x2 = 0.501 | 55.527
400.02 K, 5994.2 kPa, x2 = 0.501 | 66.95
400.02 K, 6991.4 kPa, x2 = 0.501 | 78.405
400.02 K, 7992.4 kPa, x2 = 0.501 | 89.956
400.02 K, 8994.6 kPa, x2 = 0.501 | 101.571
400.02 K, 9979.8 kPa, x2 = 0.501 | 113.018
400.02 K, 10987 kPa, x2 = 0.501 | 124.751
400.02 K, 11986 kPa, x2 = 0.501 | 136.359
400.02 K, 12984 kPa, x2 = 0.501 | 147.944
400.02 K, 13986 kPa, x2 = 0.501 | 159.545
400.02 K, 14984 kPa, x2 = 0.501 | 171.05
400.02 K, 15985 kPa, x2 = 0.501 | 182.526
400.02 K, 16984 kPa, x2 = 0.501 | 193.894
400.02 K, 17965 kPa, x2 = 0.501 | 204.97
400.02 K, 18983 kPa, x2 = 0.501 | 216.347
400.02 K, 19960 kPa, x2 = 0.501 | 227.147

From the NIST ThermoML archive (doi:10.1016/j.jct.2011.12.035)
